{
  "source": "paper PMC3641313",
  "about": "(Korean Journal of Pediatrics, 2013)",
  "key": {"influenza": {"system": "influenza", "format": "in vivo, pediatric patients", "settings": "proven influenza patients group in the first study period and second study period"}, "[1]": {"system": "influenza virus infection", "settings": "treatment initiated within 48 hours of the onset of fever; cited from earlier work"}},
  "data": [
    {"smiles": "CCOC(=O)C1=C[C@@H](OC(CC)CC)[C@H](NC(C)=O)[C@@H](N)C1", "note": "[Oseltamivir]", "values": [
      {"measurement": "admission duration, Group A compared with group B", "setting": "influenza", "value": "significant shorter"},
      {"measurement": "frequency in pneumonia, Group A compared with group B", "setting": "influenza", "value": "lesser frequency"},
      {"measurement": "average duration of fever after the initiation of oseltamivir treatment", "setting": "[1]", "value": 1.7, "unit": "days"},
      {"measurement": "patients afebrile (<37.5℃) within one day", "setting": "[1]", "value": 44, "unit": "%"},
      {"measurement": "patients recovered within two days", "setting": "[1]", "value": 86, "unit": "%"}
    ]}
  ]
}
